Columns and labels:
[1] = system: Candida albicans strain #40 fimbriae (enriched fimbriae EF, 66 kDa fimbrial subunit/adhesin protein); assay: Inhibition of fimbriae binding to immobilized glycosphingolipids by free glycosphingolipids
Experimental: The binding specificity to GSLs was assessed in experiments in which free GSLs were tested for their abilities to inhibit binding of C. albicans fimbriae to immobilized GSLs. These experiments were carried out using the microtiter plate assay described above, and as further detailed in Example 5B. C. albicans fimbriae (50 μg/ml) were preincubated with varying concentrations of asialo-GM1 or CTH at 37° C. for an hour prior to addition into the precoated microtiter wells. In this assay, GSLs were suspended in phosphate buffered saline (PBS) at a sufficiently low concentration to prevent micellar formation. C. albicans fimbriae binding to immobilized asialo-GM1 was reduced by 78% (Diamonds, FIG. 11B) by asialo-GM1.
Polystyrene microtiter plate wells (Nunc) were coated with asialo-GM1 or ceramide trihexoside (CTH) (Sigma Chem. Co., St. Louis, Mo.). Aliquots of the GSLs (5 μg/ml resuspended in methanol) were added into the wells (100 μl/well) and the plates were incubated overnight at 4° C. The wells were washed three times with 250 μl/well of 10 mM phosphate buffered saline pH 7.4 containing 150 mM NaCl (PBS) supplemented with 0.05% (w/v) bovine serum albumin (Buffer A). Excess binding sites were blocked by the addition of 200 μl/well of 5% (w/v) BSA in PBS pH 7.4 and incubation at 37° C. for 1 hour. Wells were washed three times with 250 μl/well of buffer A. Enriched fimbriae ranging from 0 to 40 μg protein/ml in Buffer A were added to the wells (100 μl/well) and incubated for 2 hour at 37° C. Aliquots of mouse anti-EF monoclonal antibodies, Fm16 (diluted 1:500), was added to each well (100 μl) and incubated at 37° C. for 2 hours. Wells were washed 5 times with 250 μl/well of Buffer A. Antibody binding to EF was assessed by the addition of a goat anti-mouse heavy and light chain [IgG(H+L)] immunoglobulin G-peroxidase conjugates (Jackson Laboratories) to each well (100 μl/well) and incubated for 1 hour at 37° C. […] The reaction was stopped by an addition of 125 μl/well of 4 mM sodium azide and the absorbance at 405 nm was recorded. […]

[2] = system: Candida albicans fimbriae (binding to human BECs); assay: Inhibition of fimbriae binding to human buccal epithelial cells (BECs); format: cell-based; conditions: fimbriae 50 μg preincubated with competitor 1 h at 37° C., 2.0×10^5 BECs
Experimental: The percent inhibition is the inhibition of binding in the presence of the competing antigens with respect to binding observed in the absence of any competitors.
The fimbrial adherence assay was performed using a Manifold filtration apparatus equipped with individual vacuum stopcocks (Model FH 225V, Hoefer Scientific Instruments). Polycarbonate filters, 12 μm pore size (Nucleopore Costar Corp.), were pre-incubated overnight at 4° C. with 50 ml of PBS pH 7.2, containing 0.45% (v/v) Tween 20. The pretreated filters were placed into each chamber and washed with 2.5 ml of PBS. 1 ml containing 2.0×10^5 BECs in PBS was added to each chamber. Enriched fimbriae (100 μl/chamber, ranging from 0 to 80 μg fimbriae protein/ml) in PBS containing 0.05% (v/v) Tween-20 was added to each chamber and incubated with the BECs for 1.5 hours at room temperature. Unbound fimbriae were removed with washes of 2.5 ml of PBS. Mouse anti-C. albicans fimbriae monoclonal antibody (ascites fluid diluted 1:3000 with PBS) was added to the BECs (1.2 ml/chamber) and incubated for 1.5 hour at room temperature. BECs were washed five times with 2.5 ml of PBS. Goat anti-mouse IgG(H+L)-peroxidase conjugates (Jackson Laboratories) diluted 1:5000 with PBS was added (1.0 ml/chamber) and incubated for another hour at room temperature. The cells were then washed seven times with 2.5 ml/chamber of PBS. The polycarbonate filters containing BECs were removed from the filtration manifold and placed into glass scintillation vials. The horseradish peroxidase substrate solution (ABTS) was added to each vial (1 ml/vial) and incubated for 30 min at room temperature on a shaker at 100 rpm. The reaction was stopped by the addition of 4 mM sodium azide (200 μl/vial). The substrate solution was pipetted into Eppendorf tubes and centrifuged at 5,000 g for 3 minutes. Aliquots of the supernatants were pipetted into microtiter wells (200 μl/well) and the resulting absorbance at 405 nm was recorded with a Titertek Multiskan Plus microplate recorder. […]

[3] = system: Candida albicans strain #40 fimbriae (enriched fimbriae EF, 66 kDa fimbrial subunit/adhesin protein); assay: Microtiter plate binding of fimbriae to immobilized glycosphingolipids; conditions: GSL immobilized in microtiter wells (0.5 μg/well)
Experimental: Binding of Candida fimbriae to GSLs was further assessed using an assay in which GSLs were immobilized on microtiter plates. […] The amount of fimbriae bound is represented as the absorbance values measured at 405 nm. The concentration of fimbrial protein required for half-maximal binding was determined to be 8 μg/ml under the assay conditions, indicating a reasonably high affinity of fimbriae for asialo-GM1.
Polystyrene microtiter plate wells (Nunc) were coated with asialo-GM1 or ceramide trihexoside (CTH) (Sigma Chem. Co., St. Louis, Mo.). Aliquots of the GSLs (5 μg/ml resuspended in methanol) were added into the wells (100 μl/well) and the plates were incubated overnight at 4° C. The wells were washed three times with 250 μl/well of 10 mM phosphate buffered saline pH 7.4 containing 150 mM NaCl (PBS) supplemented with 0.05% (w/v) bovine serum albumin (Buffer A). […] Wells were washed 5 times with 250 μl/well of Buffer A. Antibody binding to EF was assessed by the addition of a goat anti-mouse heavy and light chain [IgG(H+L)] immunoglobulin G-peroxidase conjugates (Jackson Laboratories) to each well (100 μl/well) and incubated for 1 hour at 37° C. […] The reaction was stopped by an addition of 125 μl/well of 4 mM sodium azide and the absorbance at 405 nm was recorded.

Row | Substance | Competition of fimbriae binding ([1]; fimbriae 50 μg/ml preincubated with competitor (0 to 15 μg/ml)) | Inhibition of C. albicans fimbriae binding to BECs [2] | Binding of fimbriae to glycosphingolipid coated on wells ([3]; EF 0 to 40 μg protein/ml) | Reduction of fimbriae binding to immobilized asialo-GM1 ([1]; fimbriae 50 μg/ml preincubated with competitor (0 to 15 μg/ml) 1 h at 37° C.) [%] | Concentration required for half-maximal inhibition ([1]; fimbriae 50 μg/ml, immobilized asialo-GM1) [µg/mL] | Inhibition of C. albicans fimbriae binding to BECs ([2]; competitor concentration not stated) [%] | Concentration of fimbrial protein required for half-maximal binding ([3]; the concentration is that of fimbrial protein) [µg/mL]
1 | ceramide trihexoside [CTH, ceramide trihexoside [aGal(1-4)βGal(1-4)βGlc(1-1)Cer]] | No competition | failed to inhibit | failed to bind |  |  |  | 
2 | gangliotetraosylceramide: βGal(1-3)βGalNAc(1-4)βGal(1-4)βGlc(1-1)Cer [asialo-GM1] |  |  |  | 78 | 1.44 | 80 | 8

Source: patent US5641760A, “Method of treating candida infection” (Pence, Inc., priority 1994, dated 1997)
